Measured values published in patent publication US20030064954A1, “Cationic amphiphilic 1,4-dihydropyridine derivatives useful for delivery of nucleotide containing compounds” (priority 2000, published 2003).
Values belong to the compound of their own block, whether it stands above or below them.

Tests used:
[1] = tested on: CV-1P (African monkey green kidney fibroblasts cells); assay: In vitro transfection of plasmid DNA, β-galactosidase activity per well; format: cell-based; details: CVI-P; entry spans the charge ratios 8-0.5
Experimental: Transfer of plasmid DNA by various compounds was investigated by using CV-1P (African monkey green kidney fibroblasts cells) and D407 (human retinal pigment epithelial) cells.
The cells were cultured in Dulbecco's modified Eagle's medium (DMEM, Gibco), supplemented with 10% fetal bovine serum (FBS), penicillin/streptomycin (100 units/ml and 100 μg/ml respectively) and 2 mM L-glutamine for D 407 cell line. Cell cultures were maintained at 37° C. in a 7% CO2/air incubator. The cells were collected, counted and seeded in growth medium (100 μl) into 96-well culture plate, 20 000 cells per well. One day later the medium was replaced with fresh medium without serum (150 μl)
In the case of confluent CV1-P cells the medium (with of without serum) was changed on fourth day of cell growth before the transfection.
The complexes at different derivative/DNA charge ratios for transfection procedure were prepared just before use in 50 mM MES—50 mM HEPES—75 mM NaCl buffer, pH 7.2 in separate 96 well plates. One hour after changing the serum-free medium with 10% serum the complexes were added to the cells at […]. Dose of DNA per well was 0.6 μg. After 5 h the complexes were removed, the cells were washed with PBS, and the normal growth medium was added. After 45 h of incubation at 37° C. the cells were lysed with 2% Triton X 100, twice deep frozen and the β-galactosidase activity in each well was determined spectrofotometrically with ELx800 automated microplate reader (Bio-Tex Instruments Inc., Winooski, Vt. USA) by monitoring the hydrolysis of o-nitrophenylgalactopyranoside (oNPG) at 405 nm. Purified β-galactosidase from E.coli was used to construct a standard curve and to calculate […] activity in the transfected cells. […] Transfection efficiencies are given as percentage in comparison to transfection efficiency of Lipofectin^R.

CVI-P cells = assay: Cytotoxicity of amphiphile/DNA complexes, percentage of survived cells; details: for cell viable: 'at +/−', charge ratio not given
plasmid DNA = assay: DNA condensation/complexation, EtBr displacement assay; format: binding
Experimental: The ability of the cationic amphiphiles to condense DNA was assessed with an EtBr displacement assay. Briefly, in 96 well plates plasmid DNA (0.6 μg per well) was reacted with 0.002% EtBr in 20 mM HEPES—150 mM NaCl buffer, pH 7.4 and fluorescence intensity was measured at 530 nm (excitation) and 590 nm (emission). Intercalation of EtBr molecules between the base pairs of the DNA double helix results in increased fluorescence signal. Immediately thereafter, the cationic liposomes were added to form complexes at different +/−charge ratios and the quenching of fluorescence intensity of EtBr was monitored. Condensation of DNA upon complexation with liposomes results in the displacement of EtBr from DNA and in decreased fluorescence signal. Fluorescence was measured using FL 500 microplate fluorescence reader (Bio-Tek Instruments Inc., Winooski, Vt., USA).
The values are expressed as percentage of the maximum fluorescence signal when EtBr bound to DNA in the absence of an amphiphile. Each data point is from at least triplicate experiment ±S.D.

[2] = amphiphile/DNA +/− charge ratio 0.5
[3] = amphiphile/DNA +/− charge ratio 1
[4] = amphiphile/DNA +/− charge ratio 2
[5] = amphiphile/DNA +/− charge ratio 4
[6] = amphiphile/DNA +/− charge ratio 8

Structure (SMILES): Br.CCCCCCCCCCCCCCCC[n+]1cccc(C2C(C(=O)OCCCCCCCCCCCCCC)=C(C)NC(C)=C2C(=O)OCCCCCCCCCCCCCC)c1.[Br-] [XVII, 1-Hexadecyl-1′,4′-dihydro-2′,6′-dimethyl-3′,5′-bis(tetradecyloxycarbonyl)-3,4′-bipyridinium bromide]
melting point: 133 to 135 °C
transfection, result in words [1]: No signal
cytotoxicity as a percentage of survived cells (CVI-P cells; [2]): 105,14%
cytotoxicity as a percentage of survived cells (CVI-P cells; [3]): 85,31%
cytotoxicity as a percentage of survived cells (CVI-P cells; [4]): 88,20%
cytotoxicity as a percentage of survived cells (CVI-P cells; [5]): 67,45%
cytotoxicity as a percentage of survived cells (CVI-P cells; [6]): 97,34%
complexation, percentage of the maximum fluorescence signal when EtBr bound to DNA in the absence of an amphiphile (plasmid DNA; [2]): 104,4%
complexation, percentage of the maximum fluorescence signal when EtBr bound to DNA in the absence of an amphiphile (plasmid DNA; [3]): 97,9%
complexation, percentage of the maximum fluorescence signal when EtBr bound to DNA in the absence of an amphiphile (plasmid DNA; [4]): 95,1%
complexation, percentage of the maximum fluorescence signal when EtBr bound to DNA in the absence of an amphiphile (plasmid DNA; [5]): 97%
complexation, percentage of the maximum fluorescence signal when EtBr bound to DNA in the absence of an amphiphile (plasmid DNA; [6]): 96,5%

Structure (SMILES): CCCCCCCCCCCCCCCC(=O)OCCCOC(=O)C1=C(C)NC(C)=C(C(=O)OCCCOC(=O)CCCCCCCCCCCCCCC)C1c1ccc[n+](C)c1.I.[I-] [III, 1′,4′-Dihydro-1,2′,6′-trimethyl-3′,5′-bis[(3-palmitoyloxypropoxy)carbonyl]-3,4′-bipyridinium iodide]
melting point: 143 to 146 °C
transfection, result in words [1]: No signal
cytotoxicity as a percentage of survived cells (CVI-P cells; [2]): 87,86%
cytotoxicity as a percentage of survived cells (CVI-P cells; [3]): 81,86%
cytotoxicity as a percentage of survived cells (CVI-P cells; [4]): 72,04%
cytotoxicity as a percentage of survived cells (CVI-P cells; [5]): 54,84%
cytotoxicity as a percentage of survived cells (CVI-P cells; [6]): 68,47%
complexation, percentage of the maximum fluorescence signal when EtBr bound to DNA in the absence of an amphiphile (plasmid DNA; [2]): 93,2%
complexation, percentage of the maximum fluorescence signal when EtBr bound to DNA in the absence of an amphiphile (plasmid DNA; [3]): 83,2%
complexation, percentage of the maximum fluorescence signal when EtBr bound to DNA in the absence of an amphiphile (plasmid DNA; [4]): 76,7%
complexation, percentage of the maximum fluorescence signal when EtBr bound to DNA in the absence of an amphiphile (plasmid DNA; [5]): 74,6%
complexation, percentage of the maximum fluorescence signal when EtBr bound to DNA in the absence of an amphiphile (plasmid DNA; [6]): 74,7%

Structure (SMILES): CC1=C(C(=O)OC2CC(C)CCC2C(C)C)C(c2ccc[n+](C)c2)C(C(=O)OC2CC(C)CCC2C(C)C)=C(C)N1.I.[I-] (stereo not drawn) [X, 1′,4′-Dihydro-3′,5′-bis(menthyloxycarbonyl)-1,2′,6′-trimethyl-3,4′-bipyridinium iodide]
melting point: 156 to 159 °C
transfection, result in words [1]: No signal
cell viable (CVI-P cells): 50%

Structure (SMILES): CCCCOC(=O)C1=C(C)NC(C)=C(C(=O)OCCCC)C1c1ccc[n+](C)c1.I.[I-] [Example 2a, 3′,5′-Bis(butoxycarbonyl)-1′,4′-dihydro-1,2′,6′-trimethyl-3,4′-bipyridinium iodide]
melting point: 161 to 164 °C

Structure (SMILES): CC1=C(C(=O)OC2CC3CCC2(C)C3(C)C)C(c2ccc[n+](C)c2)C(C(=O)OC2CC3CCC2(C)C3(C)C)=C(C)N1.I.[I-] (stereo not drawn) [XI, 3′,5′-Bis(bornyloxycarbonyl)-1′,4′-dihydro-1,2′,6′-trimethyl-3,4′-bipyridinium iodide]
melting point: 271 to 274 °C
transfection, result in words [1]: No signal
cell viable (CVI-P cells): 50%

Structure (SMILES): Br.CCCCCCCCCCCCCCCC[n+]1cccc(C2C(C(=O)OCCOCCC)=C(C)NC(C)=C2C(=O)OCCOCCC)c1.[Br-] [XVI, 1-Hexadecyl-1′,4′-dihydro-2′,6′-dimethyl-3′,5′-bis[(2-propoxyethoxy)carbonyl]-3,4′-bipyridinium bromide]
melting point: 93 to 96 °C
transfection, result in words [1]: No signal
cell viable (CVI-P cells): 50%

Structure (SMILES): CC1=C(C(=O)OC2CC3CCC2(C)C3(C)C)C(c2cc[n+](C)cc2)C(C(=O)OC2CC3CCC2(C)C3(C)C)=C(C)N1.I.[I-] (stereo not drawn) [Example 2u, 3′,5′-Bis(bornyloxycarbonyl)-1′,4′-dihydro-1,2′,6′-trimethyl-4,4′-bipyridinium iodide]
melting point: 270 °C (dec.)

Structure (SMILES): Br.CCCCCCCCCCCCCCCC[n+]1cccc(C2C(C(=O)OCC)=C(C)NC(C)=C2C(=O)OCC)c1.[Br-] [XV, 3′,5′-Bis (ethoxycarbonyl)-1-hexadecyl-1′,4′-dihydro-2′,6′-dimethyl-3,4′-bipyridinium bromide]
melting point: 135 to 136 °C
transfection, result in words [1]: No signal

Structure (SMILES): Br.CCOC(=O)C[n+]1cccc(C2C(C(=O)OC3CC(C)CCC3C(C)C)=C(C)NC(C)=C2C(=O)OC2CC(C)CCC2C(C)C)c1.[Br-] (stereo not drawn)
melting point: 180 °C (dec.)

Structure (SMILES): Br.CCCCCCCCCCCCCCCC[n+]1cccc(C2C(C(=O)OC3CC(C)CCC3C(C)C)=C(C)NC(C)=C2C(=O)OC2CC(C)CCC2C(C)C)c1.[Br-] (stereo not drawn) [XVIII, 1-Hexadecyl-1′,4′-dihydro-3′,5′-bis(menthyloxycarbonyl)-2′,6′-dimethyl-3,4′-bipyridinium bromide]
melting point: 115 to 117 °C
cytotoxicity as a percentage of survived cells (CVI-P cells; [2]): 85,15%
cytotoxicity as a percentage of survived cells (CVI-P cells; [3]): 83,94%
cytotoxicity as a percentage of survived cells (CVI-P cells; [4]): 76,51%
cytotoxicity as a percentage of survived cells (CVI-P cells; [5]): 9,08%
cytotoxicity as a percentage of survived cells (CVI-P cells; [6]): 3,05%
complexation, percentage of the maximum fluorescence signal when EtBr bound to DNA in the absence of an amphiphile (plasmid DNA; [2]): 97,5%
complexation, percentage of the maximum fluorescence signal when EtBr bound to DNA in the absence of an amphiphile (plasmid DNA; [3]): 90,8%
complexation, percentage of the maximum fluorescence signal when EtBr bound to DNA in the absence of an amphiphile (plasmid DNA; [4]): 82,6%
complexation, percentage of the maximum fluorescence signal when EtBr bound to DNA in the absence of an amphiphile (plasmid DNA; [5]): 78,5%
complexation, percentage of the maximum fluorescence signal when EtBr bound to DNA in the absence of an amphiphile (plasmid DNA; [6]): 79,6%

Now from value to compound, other results behind:

melting point: 142 to 143 °C (dec.)
Structure (SMILES): Br.CCCCCCCCC[n+]1cccc(C2C(C(=O)OCC)=C(C)NC(C)=C2C(=O)OCC)c1.[Br-] [XIII, 3′,5′-Bis(ethoxycarbonyl)-1′,4′-dihydro-2′,6′-dimethyl-1-nonyl-3,4′-bipyridinium bromide]
transfection, result in words [1]: No signal

melting point: 95 to 98 °C
Structure (SMILES): Br.CCCCCCCCCCCCCCCC[n+]1ccc(C2C(C(=O)OCC)=C(C)NC(C)=C2C(=O)OCC)cc1.[Br-]

melting point: 165 to 167 °C
Structure (SMILES): CCCCCCC[n+]1cccc(C2C(C(=O)OCC)=C(C)NC(C)=C2C(=O)OCC)c1.I.[I-] [Example 5a, 3′,5′-Bis(ethoxycarbonyl)-1-heptyl-1′,4′-dihydro-2′,6′-dimethyl-3,4′-bipyridinium iodide]

melting point: 152 to 156 °C
Structure (SMILES): Br.CCOC(=O)C1=C(C)NC(C)=C(C(=O)OCC)C1c1ccc[n+](CCCCCCCCCCCC(=O)O)c1.[Br-]

melting point: 89 to 93 °C
Structure (SMILES): Br.CCCCCCCCCCCCCCCC[n+]1cccc(C2C(C(=O)OCc3ccc([N+](=O)[O-])cc3)=C(C)NC(C)=C2C(=O)OCc2ccc([N+](=O)[O-])cc2)c1.[Br-]

melting point: 163 to 165 °C
Structure (SMILES): Br.CCOCCOC(=O)C1=C(C)NC(C)=C(C(=O)OCCOCC)C1c1ccc[n+](CC(=O)OCC)c1.[Br-]

melting point: 134 to 136 °C
Structure (SMILES): Br.CCOC(=O)C1=C(C)NC(C)=C(C(=O)OCC)C1c1ccc[n+](CCCCCCCCCCC(=O)O)c1.[Br-]

melting point: 140 to 143 °C
Structure (SMILES): Br.CCOC(=O)C[n+]1ccc(C2C(C(=O)OCC)=C(C)NC(C)=C2C(=O)OCC)cc1.[Br-]

melting point: 178 to 180 °C
Structure (SMILES): CCOC(=O)C1=C(C)NC(C)=C(C(=O)OCC)C1c1ccc[n+](-c2ccc([N+](=O)[O-])cc2[N+](=O)[O-])c1.Cl.[Cl-]

melting point: 180 °C (dec.)
Structure (SMILES): Br.CCOC(=O)C[n+]1cccc(C2C(C(=O)OC)=C(C)NC(C)=C2C(=O)OC)c1.[Br-]

melting point: 211 to 216 °C
Structure (SMILES): Br.CCOC(=O)C1=C(C)NC(C)=C(C(=O)OCC)C1c1cc[n+](CC(=O)c2ccc3ccccc3c2)cc1.[Br-]

melting point: 135 to 138 °C
Structure (SMILES): Br.CCCOCCOC(=O)C1=C(C)NC(C)=C(C(=O)OCCOCCC)C1c1ccc[n+](CC(=O)c2ccccc2)c1.[Br-]

melting point: 148 to 150 °C
Structure (SMILES): Br.CCCCCCCCCCCCCCCCOC(=O)C1=C(C)NC(C)=C(C(=O)OCCCCCCCCCCCCCCCC)C1c1ccc[n+](CC(=O)c2ccccc2)c1.[Br-]
